Active and inactive are the calls of the source. For most assays here, no stated cut-off is given here; in the data, actives have a measured IC50 and inactives only a lower limit.

Here are results for two compounds from ChEMBL document CHEMBL1201862, “PubChem BioAssay data set” (2004).

What all share (assay type): functional
Assay [1] has as its target T1, Sentrin-specific protease 8 (Homo sapiens, UniProt Q96LD8).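 Further: luminescence read-out of SENP8 inhibition, dose-response confirmation following an ultra-high-throughput screen.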
T1 sequence (Q96LD8 whole entry): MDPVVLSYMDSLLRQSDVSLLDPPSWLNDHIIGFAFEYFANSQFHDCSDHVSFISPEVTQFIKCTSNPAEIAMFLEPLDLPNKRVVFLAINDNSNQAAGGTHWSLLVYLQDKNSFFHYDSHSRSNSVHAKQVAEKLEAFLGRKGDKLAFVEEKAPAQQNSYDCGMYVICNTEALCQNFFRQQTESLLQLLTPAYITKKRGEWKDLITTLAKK

The target in a further assay is T2, Caspase-3 (Homo sapiens, UniProt P42574).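 Further: Dose-response selectivity test against caspase-3 for candidate inhibitors of sentrin-specific proteases (SENPs).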
T2 sequence (P42574 whole entry): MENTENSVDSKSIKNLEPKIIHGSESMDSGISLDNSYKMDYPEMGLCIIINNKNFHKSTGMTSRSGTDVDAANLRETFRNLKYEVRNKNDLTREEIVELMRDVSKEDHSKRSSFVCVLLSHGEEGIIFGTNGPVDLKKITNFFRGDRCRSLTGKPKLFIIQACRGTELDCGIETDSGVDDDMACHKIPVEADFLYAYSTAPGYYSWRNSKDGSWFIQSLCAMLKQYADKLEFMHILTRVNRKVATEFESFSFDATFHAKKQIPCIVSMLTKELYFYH

The target of assay [2] is T3, Sentrin-specific protease 7 (Homo sapiens, UniProt Q9BQF6).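 Further: Luminescence-based dose-response confirmation of ultra-high-throughput screening hits, measuring inhibition of SENP7.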
T3 sequence (Q9BQF6 whole entry): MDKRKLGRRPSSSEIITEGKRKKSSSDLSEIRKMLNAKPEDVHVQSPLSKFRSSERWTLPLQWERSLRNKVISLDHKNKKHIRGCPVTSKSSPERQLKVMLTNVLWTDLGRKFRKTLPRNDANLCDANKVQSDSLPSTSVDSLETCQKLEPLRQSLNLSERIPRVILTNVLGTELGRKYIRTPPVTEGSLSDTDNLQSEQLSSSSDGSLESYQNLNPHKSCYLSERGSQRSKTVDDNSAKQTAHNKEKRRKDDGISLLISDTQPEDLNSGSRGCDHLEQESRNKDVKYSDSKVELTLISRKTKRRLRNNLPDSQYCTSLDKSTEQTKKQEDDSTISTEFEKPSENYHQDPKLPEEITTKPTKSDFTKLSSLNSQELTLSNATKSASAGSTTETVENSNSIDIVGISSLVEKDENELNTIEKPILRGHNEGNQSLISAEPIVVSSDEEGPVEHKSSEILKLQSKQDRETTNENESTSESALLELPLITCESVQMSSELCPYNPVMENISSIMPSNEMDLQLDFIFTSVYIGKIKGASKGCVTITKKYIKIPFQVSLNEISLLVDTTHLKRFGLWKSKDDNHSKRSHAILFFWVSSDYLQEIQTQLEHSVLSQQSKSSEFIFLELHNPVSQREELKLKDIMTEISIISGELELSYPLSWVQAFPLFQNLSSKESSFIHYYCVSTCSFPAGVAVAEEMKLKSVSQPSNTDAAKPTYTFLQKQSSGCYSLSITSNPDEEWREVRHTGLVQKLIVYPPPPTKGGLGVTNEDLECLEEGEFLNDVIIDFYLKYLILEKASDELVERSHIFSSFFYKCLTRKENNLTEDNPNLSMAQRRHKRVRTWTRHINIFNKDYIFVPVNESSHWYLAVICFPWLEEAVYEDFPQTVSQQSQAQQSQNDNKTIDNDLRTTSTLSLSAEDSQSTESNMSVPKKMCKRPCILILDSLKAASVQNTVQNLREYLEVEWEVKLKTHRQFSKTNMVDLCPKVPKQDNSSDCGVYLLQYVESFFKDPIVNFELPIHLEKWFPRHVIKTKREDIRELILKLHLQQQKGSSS

Assay [3] deals with T4, Sentrin-specific protease 6 (Homo sapiens, UniProt Q9GZR1).
T4 sequence (Q9GZR1 whole entry): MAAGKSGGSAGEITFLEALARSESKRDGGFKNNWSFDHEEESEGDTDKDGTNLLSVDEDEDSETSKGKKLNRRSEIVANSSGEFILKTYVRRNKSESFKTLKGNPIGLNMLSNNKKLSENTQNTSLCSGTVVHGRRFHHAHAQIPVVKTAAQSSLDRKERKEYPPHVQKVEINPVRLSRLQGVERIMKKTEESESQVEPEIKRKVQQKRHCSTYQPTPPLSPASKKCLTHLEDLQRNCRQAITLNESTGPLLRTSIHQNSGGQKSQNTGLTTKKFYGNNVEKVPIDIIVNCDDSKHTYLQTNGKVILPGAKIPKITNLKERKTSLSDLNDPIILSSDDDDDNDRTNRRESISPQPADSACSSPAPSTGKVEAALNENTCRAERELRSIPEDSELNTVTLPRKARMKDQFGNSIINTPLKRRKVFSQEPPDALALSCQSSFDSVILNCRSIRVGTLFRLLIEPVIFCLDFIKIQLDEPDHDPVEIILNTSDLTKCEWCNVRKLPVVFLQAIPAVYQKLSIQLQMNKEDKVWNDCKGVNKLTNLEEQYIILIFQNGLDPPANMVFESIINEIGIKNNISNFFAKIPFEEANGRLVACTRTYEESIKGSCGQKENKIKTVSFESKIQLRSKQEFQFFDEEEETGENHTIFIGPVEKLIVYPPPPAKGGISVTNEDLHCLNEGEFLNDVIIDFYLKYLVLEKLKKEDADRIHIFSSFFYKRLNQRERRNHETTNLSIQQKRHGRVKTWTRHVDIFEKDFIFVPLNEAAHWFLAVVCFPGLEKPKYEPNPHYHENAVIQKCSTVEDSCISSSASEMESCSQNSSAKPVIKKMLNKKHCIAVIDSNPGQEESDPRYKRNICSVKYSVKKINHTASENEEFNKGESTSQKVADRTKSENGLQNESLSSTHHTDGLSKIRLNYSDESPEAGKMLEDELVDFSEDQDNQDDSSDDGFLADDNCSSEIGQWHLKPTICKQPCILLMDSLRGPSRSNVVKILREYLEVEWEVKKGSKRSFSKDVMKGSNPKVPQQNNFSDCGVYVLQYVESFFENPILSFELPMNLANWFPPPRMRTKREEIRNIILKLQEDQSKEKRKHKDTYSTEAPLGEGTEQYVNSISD

The nature of assay [4]: Counterscreen for IDE inhibitors: Luminescence-based cell-based high throughput dose response assay to identify compounds that are cytotoxic to HEK cells. [Related pubchem assays: 434962 (Primary screen (IDE inhibitors in singlicate)), 449730 (Counterscreen (Cytotoxicity in triplicate)), 435028 (Confirmation (IDE inhibitors in triplicate)) …. As to conditions: HEK293. For orientation: Counterscreens check selectivity or assay interference.

Turning to `COc1ccc(/C=N/Nc2cc(N(C)C)nc(N(C)C)n2)cc1`, the IC50 in assay [1] was 5.78 µM (active); at Caspase-3, > 100 µM (inactive); in assay [2], 54.5 µM (active); in assay [3], 5.62 µM (active).

For the compound `C/C(=N\c1cccc(C)c1)c1sc2ccccc2c1O`, the IC50 is 10.7 µM (active) in assay [1]; 17.4 µM (active) at Caspase-3; 4.75 µM (active) in assay [2]; 43.1 µM (not active) in assay [4]; 12.7 µM (active) in assay [3].

By IC50 is commonly meant the concentration at which inhibition is half-maximal.
